Calls of active or inactive are those of the source. The calls are words filed in the database; no cut-off is given here.
Tests used:
Rattus norvegicus [1] = assay: Antihypertensive activity in conscious SHR rat assessed as maximal change in tail arterial blood pressure at 50 mg/kg, iv measured at 10 mins interval relative to blood pressure obtained at preinjection; type: functional, Artery
Rattus norvegicus [2] = assay: Antihypertensive activity in conscious SHR rat assessed as lowering of tail arterial mean blood pressure at 5 mg/kg during 10 to 130 mins by indirect tail-cuff method; type: functional, organism-based; design: dose 5 mg/kg; settings: Artery
Rattus norvegicus [3] = assay: Antihypertensive activity in iv dosed conscious normotensive WKY rat assessed as maximal change in tail arterial blood pressure measured at 10 mins interval by dose-response curve analysis; type: functional; settings: Artery
Rattus norvegicus [4] = assay: Induction of hypotensive effect in conscious normotensive WKY rat; type: functional, organism-based
Rattus norvegicus [5] = assay: Antihypertensive activity in conscious SHR rat assessed as maximal change in tail arterial blood pressure at 20 mg/kg, iv measured at 10 mins interval relative to blood pressure obtained at preinjection; type: functional, Artery
Rattus norvegicus [6] = assay: Antihypertensive activity in iv dosed conscious SHR rat assessed as maximal change in tail arterial blood pressure measured at 10 mins interval by dose-response curve analysis; type: functional; settings: Artery
Rattus norvegicus [7] = assay: Antihypertensive activity in conscious SHR rat assessed as maximal change in tail arterial blood pressure at 10 mg/kg, iv measured at 10 mins interval relative to blood pressure obtained at preinjection; type: functional, Artery
Rattus norvegicus [8] = assay: Antihypertensive activity in conscious SHR rat assessed as maximal change in tail arterial blood pressure at 15 mg/kg, iv measured at 10 mins interval relative to blood pressure obtained at preinjection; type: functional, Artery
Rattus norvegicus [9] = assay: Induction of […] activity in conscious normotensive WKY rat assessed as maximal change in tail arterial blood pressure at 15 mg/kg, iv measured at 10 mins interval relative to blood pressure obtained at preinjection; type: functional, organism-based; design: dose 15 mg/kg

Compound | Activity (Rattus norvegicus [1]) [mmHg] | Activity (Rattus norvegicus [2]) | ED50 (Rattus norvegicus [3]) [mg/kg] | Activity (Rattus norvegicus [4]) | Activity (Rattus norvegicus [6]) | ED50 (Rattus norvegicus [6]) [mg/kg] | also measured
O=C(OC[C@H]1O[C@@H](OC(=O)c2cc(O)c(O)c(O)c2)[C@H](OC(=O)c2cc(O)c(O)c(O)c2)[C@@H](OC(=O)c2cc(O)c(O)c(O)c2)[C@@H]1O)c1cc(O)c(O)c(O)c1 | 2.3 |  |  |  |  |  | 
O=C1O[C@@H]2[C@@H](OC(=O)c3cc(O)c(O)c(O)c3-c3c1cc(O)c(O)c3O)[C@H](O)[C@@H](CO)O[C@H]2O | -5.5 |  |  |  |  |  | 
O=C(OC[C@H]1O[C@@H](O)[C@H](OC(=O)c2cc(O)c(O)c(O)c2)[C@@H](OC(=O)c2cc(O)c(O)c(O)c2)[C@@H]1OC(=O)c1cc(O)c(O)c(O)c1)c1cc(O)c(O)c(O)c1 | -5.2 |  |  |  |  |  | 
O=C(O[C@@H]1[C@@H](OC(=O)c2cc(O)c(O)c(O)c2)[C@H](O)[C@@H](CO)O[C@H]1O)c1cc(O)c(O)c(O)c1 | 4.52 |  |  |  |  |  | 
O=C1OC[C@H]2OC(=O)c3cc(O)c(O)c(O)c3-c3c(O)c(O)c(O)c4c3C(=O)O[C@H]([C@H]3OC(=O)c5c-4c(O)c(O)c(O)c5[C@H]3O)[C@@H]2OC(=O)c2cc(O)c(O)c(O)c2-c2c1cc(O)c(O)c2O [CASTALAGIN] |  | Active | 6.4 | Active | Dose-dependent effect | 6.3 | Activity (Rattus norvegicus [5]): -49.6 mmHg
O=C(O)C[C@@H]1C(=O)O[C@H]2[C@@H]3OC(=O)c4cc(O)c(O)c(O)c4-c4c(cc(O)c(O)c4O)C(=O)OC[C@H]2O[C@@H](OC(=O)c2cc(O)c(O)c(O)c2)[C@@H]3OC(=O)c2cc(O)c(O)c3c2[C@H]1[C@H](O)C(=O)O3 [CHEBULAGIC ACID] | -6.5 |  |  |  |  |  | 
O=C(O)C[C@H]1C(=O)O[C@H]2[C@H](OC(=O)c3cc(O)c(O)c(O)c3)[C@@H](OC(=O)c3cc(O)c(O)c4c3[C@H]1[C@H](O)C(=O)O4)[C@H](OC(=O)c1cc(O)c(O)c(O)c1)O[C@@H]2COC(=O)c1cc(O)c(O)c(O)c1 [CHEBULINIC ACID] |  | Active | 3.4 | Active | Dose-dependent effect | 3.2 | Activity (Rattus norvegicus [7]): -76.9 mmHg
O=C(O[C@@H]1O[C@@H]2COC(=O)c3cc(O)c(O)c(O)c3-c3c(cc(O)c(O)c3O)C(=O)O[C@H]([C@H]1O)[C@@H]2O)c1cc(O)c(O)c(O)c1 [CORILAGIN] |  | Active | 6.5 | Active | Dose-dependent effect | 6.7 | Activity (Rattus norvegicus [5]): -52.6 mmHg
O=C(OC[C@H]1O[C@@H](OC(=O)c2cc(O)c(O)c(O)c2)[C@H](OC(=O)c2cc(O)c(O)c(O)c2)[C@@H](OC(=O)c2cc(O)c(O)c(O)c2)[C@@H]1OC(=O)c1cc(O)c(O)c(O)c1)c1cc(O)c(O)c(O)c1 [PENTAGALLOYL GLUCOSE] | -7.1 |  |  |  |  |  | 
O=C1O[C@@H]2[C@@H](OC(=O)c3cc(O)c(O)c(O)c3-c3c1cc(O)c(O)c3O)[C@H](O)O[C@@H]1COC(=O)c3cc(O)c(O)c(O)c3-c3c(O)c(O)c4oc(=O)c5c(c(O)c(O)c6oc(=O)c3c4c65)-c3c(cc(O)c(O)c3O)C(=O)O[C@@H]21 [PUNICALAGIN] |  |  |  |  |  | 5.4 | Activity (Rattus norvegicus [8]): -63.4 mmHg; Activity (Rattus norvegicus [9]): Active

From ChEMBL document CHEMBL1147357, “Antihypertensive Activity of Corilagin and Chebulinic Acid, Tannins from Lumnitzera, racemosa” (1993)
